Results as given in patent publication US12304898B2, “Quinolyl-containing compound and pharmaceutical composition, and use thereof” (PrimeGene (Beijing) Co., Ltd., priority 2019, dated 2025).

Target: VEGFR2 (KDR) (Homo sapiens (Human), UniProt P35968)
Experiment: VEGFR2 (KDR) mobility shift assay
Assay type: biochemical
Settings: VEGFR2 0.5 nM, ATP 95 μM, read-out: IC50, inhibitory effect on kinase VEGFR2
Method: Detect compounds on VEGFR2 (KDR) by mobility shift assay. The initial test concentration of a compound was 1000 nM, 3 times dilution, 10 concentrations, and detection in duplicate. Nintedanib (Selleckchem, Cat. S1010) was used as the positive control compound. The operation method was briefly described as follows: kinase VEGFR2 (Carna, Cat. 08-191) at the final concentration of 0.5 nM and the test compound were mixed in the Optiplate-384F well plate and incubated for 10 minutes at room temperature. Then, ATP at a final concentration of 95 μM and 3 μM Kinase substrate 22 (Gill Biochemical (glbiochem), Cat. 112393) were added. After mixing, react at room temperature for 30 minutes. Add stop detection solution to terminate the reaction and read the conversion rate with Caliper EZ ReaderlI.
Wherein, Conversion %_sample refers to the conversion rate reading of the sample; Conversion %_min: the average value of the negative control wells, which represents the conversion rate readings of the wells without enzyme activity; Conversion %_max: the average value of the positive control wells, represents the conversion rate readings of the wells without compound inhibition.
Fitting the dose-response curve: Take the log of the concentration as the X-axis, and the percentage of inhibition rate as the Y-axis. The dose response curve was fitted by the analysis software GraphPad Prism 5 with log(inhibitor) vs. response—Variable slope to obtain the inhibitory activity (IC50) of each compound.

VEGFR2 (KDR), sequence (P35968 790-1356): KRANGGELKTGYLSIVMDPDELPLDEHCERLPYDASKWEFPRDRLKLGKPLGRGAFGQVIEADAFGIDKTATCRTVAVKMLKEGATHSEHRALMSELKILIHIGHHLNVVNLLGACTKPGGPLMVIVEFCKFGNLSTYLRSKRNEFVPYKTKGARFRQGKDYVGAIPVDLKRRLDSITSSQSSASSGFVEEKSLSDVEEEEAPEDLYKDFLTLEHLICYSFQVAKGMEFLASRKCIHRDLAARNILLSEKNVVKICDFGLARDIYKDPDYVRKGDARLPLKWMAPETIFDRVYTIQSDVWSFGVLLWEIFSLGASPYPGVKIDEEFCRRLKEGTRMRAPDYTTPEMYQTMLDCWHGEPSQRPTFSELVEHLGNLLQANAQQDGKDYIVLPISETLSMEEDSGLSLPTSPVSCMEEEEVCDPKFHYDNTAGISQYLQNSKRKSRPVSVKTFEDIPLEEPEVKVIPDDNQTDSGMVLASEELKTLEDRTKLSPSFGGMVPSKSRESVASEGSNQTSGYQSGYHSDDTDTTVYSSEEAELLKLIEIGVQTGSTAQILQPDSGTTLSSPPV

| IC50 [µM] | SMILES |
| --- | --- |
| 0.079 | COc1cc2c(Oc3ccc(NC(=O)C4(C(=O)Nc5ccc(F)cc5)CC4)cc3F)ccnc2cc1OCCCCSC(C)=O [Example 6, S-(4-((4-(2-Fluoro-4-(1-((4-fluorophenyl)aminoformyl)cyclopropane-1-carboxamido)phenoxy)-6-methoxyquinolin-7-yl)oxy)butyl)-acetylthioester] |
| 0.079 | COc1cc2c(Oc3ccc(NC(=O)C4(C(=O)Nc5ccc(F)cc5)CC4)cc3F)ccnc2cc1OC/C=C/CCCCS [Example 25, (E)-N-(3-fluoro-4-((7-((7-mercaptoheptyl-2-en-1-yl)oxy)-6-methoxyquinolin-4-yl)oxy)phenyl)-N-(4-fluorophenyl)cyclopropane-1,1-diformamide] |
| 0.033 | COc1cc2c(Oc3ccc(NC(=O)C4(C(=O)Nc5ccc(F)cc5)CC4)cc3F)ccnc2cc1OC/C=C/CCCS [Example 27, (E)-N-(3-fluoro-4-((7-((6-mercaptohexyl-2-en-1-yl)oxy)-6-methoxyquinolin-4-yl)oxy)phenyl)-N-(4-fluorophenyl)cyclopropane-1,1-dimethylamid] |
| 0.054 | COc1cc2c(Oc3ccc(NC(=O)C4(C(=O)Nc5ccc(F)cc5)CC4)cc3F)ccnc2cc1OCCCSc1nnc(S)s1 [Example 54, N-(3-fluoro-4-((7-(3-((5-thio-1,3,4-trithiazol-2-yl)sulfanyl)propoxy)-6-methoxyquinolin-4-yl)oxy)phenyl)-N-(4-fluorophenyl)cyclopropane-1,1-diformamide] |
| 0.03 | COc1cc2c(Oc3ccc(NC(=O)C4(C(=O)Nc5ccc(F)cc5)CC4)cc3F)ccnc2cc1OCCNC(=O)NCCSC(C)=O [Example 55] |
| 0.013 | COc1cc2c(Oc3ccc(NC(=O)C4(C(=O)Nc5ccc(F)cc5)CC4)cc3)ccnc2cc1OCCCCCNC(=O)CSC(C)=O [Example 65] |
| 0.0026 | CC(=O)SCCCCCCOc1cc2nccc(Oc3ccc(NC(=O)NC4CC4)c(Cl)c3)c2cc1C(N)=O [Example 86, S-(7-((6-carbamoyl-4-(3-chloro-4-(3-cyclopropylurea)phenoxy)quinolin-7-yl)oxy)hexyl)thioacetate] |

| SMILES | IC50 [µM] |
| --- | --- |
| COc1cc2c(Oc3ccc(NC(=O)C4(C(=O)Nc5ccc(F)cc5)CC4)cc3F)ccnc2cc1OCCCCS [Example 7, N-(3-fluoro-4-((7-(4-mercaptobutoxy)-6-methoxyquinolin-4-yl)oxy)phenyl)-N-(4-fluorophenyl) cyclopropane-1,1-diformamide] | 0.057 |

Target: HDAC6 (Homo sapiens (Human), UniProt Q9UBN7)
Experiment: HDAC6 fluorescence analysis, inhibition of HDAC6 activity
Assay type: biochemical
Settings: HDAC6 0.3 nM solution, substrate 15 μM, fluorescence readout; read-out: IC50, inhibitory effect on HDAC6
Method: HDAC6 fluorescence analysis method was used to detect the inhibitory effect of the compounds on the activity of HDAC6. The specific operation is as follows:
Prepare a 10 mM stock solution of a compound with DMSO. Take 10 μl of stock solution and dilute with 90 μl DMSO to become a 1 mM working solution. […] Add 3 μl of each concentration to 197 μl reaction buffer (20 mM Hepes pH 8.0, 137 mM NaCl, 2.7 mM KCl, 1 mM MgCl2, 0.05% BSA, 0.5 mM TCEP), mix well and add 10 μl to a 384-well plate. In the final reaction system, the concentrations of the compound were 10 μM to 0.51 nM. Duplicate, and add 10 μl 3XHDAC solution (BPS, Cat. 50006, 0.3 nM) to each well, followed by incubating at 23° C. for 20 minutes. Then, add 3× substrate solution (Anaspec, Cat. 61855, 15 μM), centrifuge to mix, and incubate at 23° C. for 90 minutes. Add 30 μl trypsin/SAHA mixture (20 mM Hepes pH 8.0, 100 mM NaCl, 10 mM SAHA, 0.01 mg/ml trypsin), incubate at 23° C. for 60 minutes to terminate the reaction. Finally, read fluorescence data by Envision (390 nm excitation, 460 nm emission). […] Finally, analyze the data by XLfit5 software and calculate the IC50 value of the compound. Vorinostat (SAHA) was a positive reference compound.

HDAC6, sequence (Q9UBN7 whole entry): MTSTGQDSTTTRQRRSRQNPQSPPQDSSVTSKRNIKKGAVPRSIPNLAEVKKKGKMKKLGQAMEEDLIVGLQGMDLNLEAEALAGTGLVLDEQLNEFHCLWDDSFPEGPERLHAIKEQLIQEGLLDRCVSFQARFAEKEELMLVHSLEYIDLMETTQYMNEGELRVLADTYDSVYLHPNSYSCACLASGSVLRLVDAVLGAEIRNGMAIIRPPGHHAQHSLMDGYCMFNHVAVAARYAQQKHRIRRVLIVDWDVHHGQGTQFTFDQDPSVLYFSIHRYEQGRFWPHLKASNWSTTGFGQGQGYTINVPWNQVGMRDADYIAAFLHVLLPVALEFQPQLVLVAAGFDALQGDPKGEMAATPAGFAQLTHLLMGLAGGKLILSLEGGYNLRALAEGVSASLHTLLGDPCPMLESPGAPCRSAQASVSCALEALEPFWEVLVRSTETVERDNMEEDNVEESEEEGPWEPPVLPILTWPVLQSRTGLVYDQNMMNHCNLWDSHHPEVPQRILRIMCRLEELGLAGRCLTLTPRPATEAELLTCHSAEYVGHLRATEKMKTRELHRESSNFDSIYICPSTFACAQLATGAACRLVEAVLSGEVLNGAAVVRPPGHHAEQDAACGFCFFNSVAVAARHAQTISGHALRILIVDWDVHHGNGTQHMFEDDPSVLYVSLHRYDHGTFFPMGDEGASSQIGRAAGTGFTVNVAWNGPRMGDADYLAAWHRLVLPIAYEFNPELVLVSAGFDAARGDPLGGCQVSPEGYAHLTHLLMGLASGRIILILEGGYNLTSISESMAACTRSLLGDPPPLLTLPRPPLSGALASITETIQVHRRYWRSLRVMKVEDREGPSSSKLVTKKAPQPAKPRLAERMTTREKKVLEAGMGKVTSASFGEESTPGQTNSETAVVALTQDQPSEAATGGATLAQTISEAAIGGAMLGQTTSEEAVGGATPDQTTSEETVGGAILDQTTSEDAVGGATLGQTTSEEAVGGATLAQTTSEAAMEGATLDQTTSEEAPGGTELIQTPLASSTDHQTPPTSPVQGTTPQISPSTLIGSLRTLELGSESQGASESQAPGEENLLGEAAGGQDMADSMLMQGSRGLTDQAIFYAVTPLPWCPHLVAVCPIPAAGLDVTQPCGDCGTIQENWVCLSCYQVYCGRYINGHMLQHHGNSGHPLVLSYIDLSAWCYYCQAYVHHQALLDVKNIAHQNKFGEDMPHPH

| IC50 [µM] | SMILES |
| --- | --- |
| > 10 | COc1cc2nccc(Oc3ccc(NC(=O)C4(C(=O)Nc5ccc(F)cc5)CC4)cc3)c2cc1OC [Cabozantinib, reference compound] |
| 0.0678 | COc1cc2c(Oc3ccc(NC(=O)C4(C(=O)Nc5ccc(F)cc5)CC4)cc3F)ccnc2cc1OCCCCCCCSC(C)=O [Example 12, S-(7-((4-(2-fluoro-4-(1-((4-fluorophenyl)aminoformyl)cyclopropane-1-carboxamido)phenoxy)-6-methoxyquinolin-7-yl)oxy)heptyl)-acetylthioester] |
| 0.018 | COc1cc2c(Oc3ccc(NC(=O)C4(C(=O)Nc5ccc(F)cc5)CC4)cc3F)ccnc2cc1OCCCCCCCS [Example 13, N-(3-fluoro-4-((7-(7-mercaptoheptyloxy)-6-methoxyquinolin-4-yl)oxy)phenyl)-N-(4-fluorophenyl) cyclopropane-1,1-diformamide] |
| 0.0348 | COc1cc2c(Oc3ccc(NC(=O)C4(C(=O)Nc5ccc(F)cc5)CC4)cc3F)ccnc2cc1OC/C=C/CCCCS [Example 25, (E)-N-(3-fluoro-4-((7-((7-mercaptoheptyl-2-en-1-yl)oxy)-6-methoxyquinolin-4-yl)oxy)phenyl)-N-(4-fluorophenyl)cyclopropane-1,1-diformamide] |

Test system: not listed separately
Experiment: Pharmacokinetic experiment in rats after intragastric administration
Assay type: in vivo
Settings: rat, po, female SD rats, 10 mg/kg, plasma
Method: The female SD rats were divided into groups, 3 rats in each group, and the example compounds 10, 12, 24, 57, 61, 89, 90, 93, 94, 96 (10 mg/kg) were administered by intragastric administration. Fasting overnight before administration, and the fasting time was from 10 hours before administration to 4 hours after administration. Blood was collected at 0.25, 0.5, 1, 2, 4, 8 and 24 hours after administration. Small animal anesthesia machine was used for isoflurane anesthesia. After that, 0.3 mL of whole blood was collected from the fundus venous plexus and placed in a heparin anticoagulation tube. The sample was centrifuged at 4° C., 4000 rpm, for 5 minutes, and the plasma was transferred to a centrifuge tube, and stored at −80° C. until analysis. The plasma sample was extracted by protein precipitation method, and the extract was processed and analyzed by LC/MS/MS.

| AUC(0-inf) [ng·h/mL] | Cmax [ng/mL] | Tmax [h] | half-life [h] | SMILES |
| --- | --- | --- | --- | --- |
| 468 | 377 | 0.833 | 1.24 | COc1cc2c(Oc3ccc(NC(=O)C4(C(=O)Nc5ccc(F)cc5)CC4)cc3F)ccnc2cc1OCCCCCCSC(C)=O [Example 10, S-(6-((4-(2-fluoro-4-(1-((4-fluorophenyl)aminoformyl)cyclopropane-1-carboxamido)phenoxy)-6-methoxyquinolin-7-yl)oxy)hexyl)-acetylthioester] |
| 1870 | 946 | 1 | 3 | COc1cc2c(Oc3ccc(NC(=O)C4(C(=O)Nc5ccc(F)cc5)CC4)cc3F)ccnc2cc1OCCCCCCCSC(C)=O [Example 12, S-(7-((4-(2-fluoro-4-(1-((4-fluorophenyl)aminoformyl)cyclopropane-1-carboxamido)phenoxy)-6-methoxyquinolin-7-yl)oxy)heptyl)-acetylthioester] |
| 1070 | 430 | 1.33 | 6.69 | COc1cc2c(Oc3ccc(NC(=O)C4(C(=O)Nc5ccc(F)cc5)CC4)cc3F)ccnc2cc1OC/C=C/CCCCSC(C)=O [Example 24, (E)-S-(7-((4-(2-fluoro-4-(1-((4-fluorophenyl)aminoformyl)cyclopropane-1-carbamoyl)phenoxy)-6-methoxyquinolin-7-yl)oxy)heptyl-5-en-1-yl)acetylthio ester] |
| 2790 | 1590 | 0.33 | 6.42 | COc1cc2c(Oc3ccc(NC(=O)C4(C(=O)Nc5ccc(F)cc5)CC4)cc3F)ccnc2cc1OCCCCCNC(=O)CSC(C)=O [Example 57, S-(2-((5-((4-(2-fluoro-4-(1-((4-fluorophenyl)carbamoyl)cyclopropane-1-carboxamido)phenoxy)-6-methoxyquinolin-7-yl)oxy)pentyl)amino)-2-oxo-ethyl)thioacetate] |
| 175 | 121 | 0.5 | 1.84 | COc1cc2c(Oc3ccc(NC(=O)C4(C(=O)Nc5ccc(F)cc5)CC4)cc3F)ccnc2cc1OCCCCNC(=O)CSC(C)=O [Example 61] |
| 1650 | 1000 | 0.833 | 5.94 | COc1cc2c(Oc3ccc(NC(=O)C4(C(=O)Nc5ccc(F)cc5)CC4)cc3F)ccnc2cc1OCCCCCNC(=O)CSC(=O)C(C)(C)C [Example 89, S-(2-((5-((4-(2-fluoro-4-(1-((4-fluorophenyl)carbamoyl)cyclopropane-1-carboxamido)phenoxy)-6-methoxyquinolin-7-yl)oxo)phenyl)amino)-2-oxo-ethyl)2,2-dimethylthiopropionate] |
| 689 | 852 | 0.333 | 4.25 | CCCCCCCC(=O)SCC(=O)NCCCCCOc1cc2nccc(Oc3ccc(NC(=O)C4(C(=O)Nc5ccc(F)cc5)CC4)cc3F)c2cc1OC [Example 90] |
| 790 | 429 | 0.667 | 5.49 | COc1cc2c(Oc3ccc(NC(=O)C4(C(=O)Nc5ccc(F)cc5)CC4)cc3F)ccnc2cc1OCCCCCNC(=O)CSC(=O)[C@H](N)Cc1cn(C)c2ccccc12 [Example 93, S-(2-((5-((4-(2-fluoro-4-(1-((4-fluorophenyl)carbamoyl)cyclopropane-1-carboxamido)phenoxy)-6-methoxyquinolin-7-yl)oxy)pentyl)amino)-2-oxo-ethyl)-(R)-2-amino-3-(1-methyl-1H-indol-3-yl)thiopropionate benzenesulfonate] |
| 499 | 289 | 0.5 | 6.14 | COc1cc2c(Oc3ccc(NC(=O)C4(C(=O)Nc5ccc(F)cc5)CC4)cc3F)ccnc2cc1OCCCCCNC(=O)CSC(=O)[C@@H](Cc1cn(C)c2ccccc12)NC(C)=O [Example 94, S-(2-((5-((4-(2-Fluoro-4-(1-((4-fluorophenyl)carbamoyl)cyclopropane-1-carboxamido)phenoxy)-6-methoxyquinolin-7-yl)oxy)pentyl)amino)-2-oxo-ethyl)-(R)-2-acetylamino-3-(1-methyl-1H-indol-3-yl)thiopropionate] |
| 1040 | 724 | 0.417 | 6.92 | COc1cc2c(Oc3ccc(NC(=O)C4(C(=O)Nc5ccc(F)cc5)CC4)cc3F)ccnc2cc1OCCCCCNC(=O)CSSC [Example 96, N-(3-fluoro-4-((6-methoxy-7-((5-(2-(methyldisulfanyl)acetylamino)pentyl)oxy)quinolin-4-yl)oxy)phenyl)-N-(4-fluorophenyl)cyclopropyl-1,1-diformamide] |
